Patent publication US20260297081A1, “COMPOUNDS AND METHODS OF TREATING CANCERS” (Cullgen Inc., priority 2023, published 2026)

Target: CDK4 (Homo sapiens, UniProt P11802+Q16531)
Experiment: CDK4 percentage degradation in Calu-1 cells (Table 6)
Type: cell-based
Design: Cells that express cyclin D1-3 and CDK4/6 proteins were treated with heterobifunctional compounds; endogenous in cells; host or cells: Calu-1
Details: 16 hours; for inhibition at 0.04 µM: 40 nM; for inhibition at 0.2 µM: 200 nM
How it was run: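 Percentage degradation of Cyclin D1 and CDK4 derived from densitometry of ECL Western blots on lysates of Calu-1 cells. Treatment was 16 h with compound at either 40 nM or 200 nM.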

Sequence of CDK4 (P11802 2-303 limits assumed): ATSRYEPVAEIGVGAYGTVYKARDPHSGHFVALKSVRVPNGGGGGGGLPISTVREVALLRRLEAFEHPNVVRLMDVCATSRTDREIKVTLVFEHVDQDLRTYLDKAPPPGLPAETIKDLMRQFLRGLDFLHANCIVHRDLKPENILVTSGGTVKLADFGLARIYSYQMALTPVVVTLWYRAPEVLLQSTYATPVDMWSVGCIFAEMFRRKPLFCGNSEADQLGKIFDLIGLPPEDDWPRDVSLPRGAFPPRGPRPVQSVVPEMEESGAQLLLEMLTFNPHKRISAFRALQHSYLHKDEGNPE
Sequence of CDK4 (P24385 whole entry partner): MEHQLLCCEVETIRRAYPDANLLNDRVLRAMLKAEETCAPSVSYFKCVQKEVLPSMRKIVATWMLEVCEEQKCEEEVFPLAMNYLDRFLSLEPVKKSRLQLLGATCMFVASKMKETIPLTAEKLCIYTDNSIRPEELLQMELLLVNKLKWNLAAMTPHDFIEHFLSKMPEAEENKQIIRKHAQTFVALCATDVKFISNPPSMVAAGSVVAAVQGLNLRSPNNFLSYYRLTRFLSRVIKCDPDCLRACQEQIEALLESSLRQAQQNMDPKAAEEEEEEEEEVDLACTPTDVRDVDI
Sequence of CDK4 (Q16531 2-1140 limits assumed): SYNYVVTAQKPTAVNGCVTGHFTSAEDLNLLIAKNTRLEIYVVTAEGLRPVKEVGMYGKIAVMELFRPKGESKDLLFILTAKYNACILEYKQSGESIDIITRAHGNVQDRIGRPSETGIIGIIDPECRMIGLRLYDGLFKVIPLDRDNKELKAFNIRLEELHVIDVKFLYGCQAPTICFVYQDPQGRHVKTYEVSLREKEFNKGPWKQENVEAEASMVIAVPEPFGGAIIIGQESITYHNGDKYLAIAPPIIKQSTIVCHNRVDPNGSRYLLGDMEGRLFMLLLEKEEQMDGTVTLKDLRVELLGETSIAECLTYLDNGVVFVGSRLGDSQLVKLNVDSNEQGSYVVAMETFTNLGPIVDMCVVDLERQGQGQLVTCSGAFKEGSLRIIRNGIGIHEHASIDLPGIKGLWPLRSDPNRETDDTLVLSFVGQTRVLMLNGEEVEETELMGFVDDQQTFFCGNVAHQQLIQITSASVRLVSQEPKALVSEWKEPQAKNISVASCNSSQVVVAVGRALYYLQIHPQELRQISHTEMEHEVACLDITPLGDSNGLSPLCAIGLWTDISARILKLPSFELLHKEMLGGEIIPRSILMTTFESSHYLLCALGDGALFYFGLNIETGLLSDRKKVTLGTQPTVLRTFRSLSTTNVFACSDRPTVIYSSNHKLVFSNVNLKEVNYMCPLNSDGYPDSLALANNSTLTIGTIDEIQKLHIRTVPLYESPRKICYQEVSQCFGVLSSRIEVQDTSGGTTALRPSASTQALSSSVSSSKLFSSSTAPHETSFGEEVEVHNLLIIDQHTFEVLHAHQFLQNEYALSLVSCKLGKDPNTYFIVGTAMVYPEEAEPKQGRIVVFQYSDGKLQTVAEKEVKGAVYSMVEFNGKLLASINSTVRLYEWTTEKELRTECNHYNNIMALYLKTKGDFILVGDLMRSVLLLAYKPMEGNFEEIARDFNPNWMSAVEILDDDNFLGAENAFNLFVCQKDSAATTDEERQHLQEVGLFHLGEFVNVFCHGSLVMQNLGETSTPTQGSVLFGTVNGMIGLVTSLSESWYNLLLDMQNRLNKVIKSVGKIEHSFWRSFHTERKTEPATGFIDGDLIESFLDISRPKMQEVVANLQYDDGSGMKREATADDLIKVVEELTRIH

Row | inhibition at 0.04 µM | inhibition at 0.2 µM | SMILES
1 | 30 to 50% | 50 to 80% | CNc1ccc(C(=O)Nc2ccc(OC)c(C)n2)c(NC2CC3(CC(NC(=O)CN4CCN(c5ccc(Nc6ncc7c(C)c(C(C)=O)c(=O)n(C8CCCC8)c7n6)nc5)CC4)C3)C2)n1 (stereo not shown) [CPD-220, 2-((6-(2-(4-(6-((6-acetyl-8-cyclopentyl-5-methyl-7-oxo-7,8-dihydropyrido[2,3-d]pyrimidin-2-yl)amino)pyridin-3-yl)piperazin-1-yl)acetamido)spiro[3.3]heptan-2-yl)amino)-N-(5-methoxy-6-methylpyridin-2-yl)-6-(methylamino)nicotinamide]
2 | 30 to 50% | 50 to 80% | [2H]C([2H])([2H])Nc1ccc(C(=O)Nc2cn(C)c(C3CC3)n2)c(NC2CCN(C(=O)CN3CCN(c4ccc(Nc5ncc6c(C)c(C(C)=O)c(=O)n(C7CCCC7)c6n5)nc4)CC3)CC2)n1 [CPD-236, 2-((1-(2-(4-(6-((6-acetyl-8-cyclopentyl-5-methyl-7-oxo-7,8-dihydropyrido[2,3-d]pyrimidin-2-yl)amino)pyridin-3-yl)piperazin-1-yl)acetyl)piperidin-4-yl)amino)-N-(2-cyclopropyl-1-methyl-1H-imidazol-4-yl)-6-((methyl-d3)amino)nicotinamide]
3 | 50 to 80% | 50 to 80% | CNc1ccc(C(=O)Nc2cccc(C3CC3)n2)c(NC2CC(CNC(=O)CN3CCN(c4ccc(Nc5ncc6c(C)c(C(C)=O)c(=O)n(C7CCCC7)c6n5)nc4)CC3)C2)n1 (stereo not shown) [CPD-162, 2-((3-((2-(4-(6-((6-acetyl-8-cyclopentyl-5-methyl-7-oxo-7,8-dihydropyrido[2,3-d]pyrimidin-2-yl)amino)pyridin-3-yl)piperazin-1-yl)acetamido)methyl)cyclobutyl)amino)-N-(6-cyclopropylpyridin-2-yl)-6-(methylamino)nicotinamide]
4 | 50 to 80% |  | CNc1ccc(C(=O)Nc2ccc(C)c(C3CC3)n2)c(NCCCCCNC(=O)CN2CCN(c3ccc(Nc4ncc5c(C)c(C(C)=O)c(=O)n(C6CCCC6)c5n4)nc3)CC2)n1 [CPD-7, 2-((5-(2-(4-(6-((6-acetyl-8-cyclopentyl-5-methyl-7-oxo-7,8-dihydropyrido[2,3-d]pyrimidin-2-yl)amino)pyridin-3-yl)piperazin-1-yl)acetamido)pentyl)amino)-N-(6-cyclopropyl-5-methylpyridin-2-yl)-6-(methylamino)nicotinamide]
5 | < 30% | < 30% | CNc1ccc(C(=O)Nc2nc(C3CC3)ccc2C)c(NCCCCCNC(=O)CN2CCN(c3ccc(Nc4ncc5c(C)c(C(C)=O)c(=O)n(C6CCCC6)c5n4)nc3)CC2)n1 [CPD-61, 2-((5-(2-(4-(6-((6-Acetyl-8-cyclopentyl-5-methyl-7-oxo-7,8-dihydropyrido[2,3-d]pyrimidin-2-yl)amino)pyridin-3-yl)piperazin-1-yl)acetamido)pentyl)amino)-N-(6-cyclopropyl-3-methylpyridin-2-yl)-6-(methylamino)nicotinamide]
6 | 30 to 50% | 30 to 50% | CNc1ccc(C(=O)Nc2ccc(N(C)C)nn2)c(NC2CC3(CC(CCC(=O)N4CCN(c5ccc(Nc6ncc7c(C)c(C(C)=O)c(=O)n(C8CCCC8)c7n6)nc5)CC4)C3)C2)n1 (stereo not shown) [CPD-82, 2-((6-(3-(4-(6-((6-Acetyl-8-cyclopentyl-5-methyl-7-oxo-7,8-dihydropyrido[2,3-d]pyrimidin-2-yl)amino)pyridin-3-yl)piperazin-1-yl)-3-oxopropyl)spiro[3.3]heptan-2-yl)amino)-N-(6-(dimethylamino)pyridazin-3-yl)-6-(methylamino)nicotinamide]
7 | < 30% | < 30% | CC(=O)c1c(C)c2cnc(Nc3ccc(N4CCN(CC(=O)NC5CC6(C5)CC(Nc5nc(C)ccc5C(=O)Nc5cc(C)on5)C6)CC4)cn3)nc2n(C2CCCC2)c1=O (stereo not shown) [CPD-192, ((6-(2-(4-(6-((6-acetyl-8-cyclopentyl-5-methyl-7-oxo-7,8-dihydropyrido[2,3-d]pyrimidin-2-yl)amino)pyridin-3-yl)piperazin-1-yl)acetamido)spiro[3.3]heptan-2-yl)amino)-6-methyl-N-(5-methylisoxazol-3-yl)nicotinamide]
8 | 50 to 80% | 50 to 80% | CNc1ccc(C(=O)Nc2ccc(F)c(C3CC3)n2)c(NC2CC3(CC(NC(=O)CN4CCN(c5ccc(Nc6ncc7c(C)c(C(C)=O)c(=O)n(C8CCCC8)c7n6)nc5)CC4)C3)C2)n1 (stereo not shown) [CPD-128, 2-((6-(2-(4-(6-((6-Acetyl-8-cyclopentyl-5-methyl-7-oxo-7,8-dihydropyrido[2,3-d]pyrimidin-2-yl)amino)pyridin-3-yl)piperazin-1-yl)acetamido)spiro[3.3]heptan-2-yl)amino)-N-(6-cyclopropyl-5-fluoropyridin-2-yl)-6-(methylamino)nicotinamide]
9 | < 30% | 50 to 80% | CNc1ccc(C(=O)Nc2ccc(C)c(C(C)C)n2)c(NCCCCCNC(=O)CN2CCN(c3ccc(Nc4ncc5c(C)c(C(C)=O)c(=O)n(C6CCCC6)c5n4)nc3)CC2)n1 [CPD-111, 2-((5-(2-(4-(6-((6-Acetyl-8-cyclopentyl-5-methyl-7-oxo-7,8-dihydropyrido[2,3-d]pyrimidin-2-yl)amino)pyridin-3-yl)piperazin-1-yl)acetamido)pentyl)amino)-N-(6-isopropyl-5-methylpyridin-2-yl)-6-(methylamino)nicotinamide]
10 | < 30% | < 30% | CNc1ccc(C(=O)Nc2cc(C(C)C)on2)c(NC2CC3(CC(NC(=O)CN4CCN(c5ccc(Nc6ncc7c(C)c(C(C)=O)c(=O)n(C8CCCC8)c7n6)nc5)CC4)C3)C2)n1 (stereo not shown) [CPD-227, 2-((6-(2-(4-(6-((6-acetyl-8-cyclopentyl-5-methyl-7-oxo-7,8-dihydropyrido[2,3-d]pyrimidin-2-yl)amino)pyridin-3-yl)piperazin-1-yl)acetamido)spiro[3.3]heptan-2-yl)amino)-N-(5-isopropylisoxazol-3-yl)-6-(methylamino)nicotinamide]
11 | < 30% | < 30% | CC(=O)c1c(C)c2cnc(Nc3ccc(N4CCN(CC(=O)NCCC5CC(Nc6nc(C7CC7)ccc6C(=O)Nc6ccc(C)c(C7CC7)n6)C5)CC4)cn3)nc2n(C2CCCC2)c1=O (stereo not shown) [CPD-45, 2-((3-(2-(2-(4-(6-((6-Acetyl-8-cyclopentyl-5-methyl-7-oxo-7,8-dihydropyrido[2,3-d]pyrimidin-2-yl)amino)pyridin-3-yl)piperazin-1-yl)acetamido)ethyl)cyclobutyl)amino)-6-cyclopropyl-N-(6-cyclopropyl-5-methylpyridin-2-yl)nicotinamide]
12 | 30 to 50% | 50 to 80% | CNc1ccc(C(=O)Nc2ccn(C)n2)c(NC2CC3(CC(NC(=O)CN4CCN(c5ccc(Nc6ncc7c(C)c(C(C)=O)c(=O)n(C8CCCC8)c7n6)nc5)CC4)C3)C2)n1 (stereo not shown) [CPD-93, 2-((6-(2-(4-(6-((6-Acetyl-8-cyclopentyl-5-methyl-7-oxo-7,8-dihydropyrido[2,3-d]pyrimidin-2-yl)amino)pyridin-3-yl)piperazin-1-yl)acetamido)spiro[3.3]heptan-2-yl)amino)-N-(1-methyl-1H-pyrazol-3-yl)-6-(methylamino)nicotinamide]
13 | < 30% | < 30% | CNc1ccc(C(=O)Nc2cn(C(C)C)c(C)n2)c(NC2CC3(CC(NC(=O)CN4CCN(c5ccc(Nc6ncc7c(C)c(C(C)=O)c(=O)n(C8CCCC8)c7n6)nc5)CC4)C3)C2)n1 (stereo not shown) [CPD-238, 2-((6-(2-(4-(6-((6-acetyl-8-cyclopentyl-5-methyl-7-oxo-7,8-dihydropyrido[2,3-d]pyrimidin-2-yl)amino)pyridin-3-yl)piperazin-1-yl)acetamido)spiro[3.3]heptan-2-yl)amino)-N-(1-isopropyl-2-methyl-1H-imidazol-4-yl)-6-(methylamino)nicotinamide]
14 | < 30% | < 30% | CNc1ccc(C(=O)Nc2ccc(Cl)c(C3CC3)n2)c(NCCCCCNC(=O)CN2CCN(c3ccc(Nc4ncc5c(C)c(C(C)=O)c(=O)n(C6CCCC6)c5n4)nc3)CC2)n1 [CPD-112, 2-((5-(2-(4-(6-((6-Acetyl-8-cyclopentyl-5-methyl-7-oxo-7,8-dihydropyrido[2,3-d]pyrimidin-2-yl)amino)pyridin-3-yl)piperazin-1-yl)acetamido)pentyl)amino)-N-(5-chloro-6-cyclopropylpyridin-2-yl)-6-(methylamino)nicotinamide]
15 | 50 to 80% | 50 to 80% | CNc1ccc(C(=O)Nc2cccc(C(F)F)n2)c(NC2CC3(CC(NC(=O)CN4CCN(c5ccc(Nc6ncc7c(C)c(C(C)=O)c(=O)n(C8CCCC8)c7n6)nc5)CC4)C3)C2)n1 (stereo not shown) [CPD-184, 2-((6-(2-(4-(6-((6-acetyl-8-cyclopentyl-5-methyl-7-oxo-7,8-dihydropyrido[2,3-d]pyrimidin-2-yl)amino)pyridin-3-yl)piperazin-1-yl)acetamido)spiro[3.3]heptan-2-yl)amino)-N-(6-(difluoromethyl)pyridin-2-yl)-6-(methylamino)nicotinamide]
16 | 30 to 50% | 50 to 80% | [2H]C([2H])([2H])Nc1ccc(C(=O)Nc2cc(C)on2)c(NC2CCN(C(=O)CN3CCN(c4ccc(Nc5ncc6c(C)c(C(C)=O)c(=O)n(C7CCCC7)c6n5)nc4)CC3)CC2)n1 [CPD-231, 2-((1-(2-(4-(6-((6-acetyl-8-cyclopentyl-5-methyl-7-oxo-7,8-dihydropyrido[2,3-d]pyrimidin-2-yl)amino)pyridin-3-yl)piperazin-1-yl)acetyl)piperidin-4-yl)amino)-6-((methyl-d3)amino)-N-(5-methylisoxazol-3-yl)nicotinamide]
